Assay results from US12377095B2, “Use of ligustrazine nitrone derivatives in treatment and prevention of diabetic complication diseases” (QINGDAO HAILAN PHARMACEUTICALS CO., LTD., priority 2019, dated 2025).

Columns and labels:
[1] = system: STZ-induced DKD rats; experiment: HE staining of kidney tissue, STZ-induced SD rat DKD model; type: in vivo
Description: (§1) Before the injection, the rats were fasted for 12 hours without water. After weighing, the rats were injected with 55 mg/kg STZ intraperitoneally (STZ needs to be injected quickly, and the injection was completed within 10 minutes), and then returned to the cage to ensure that the rats had sufficient drinking water for 24 hours. Rats were injected with an equal volume of citrate buffer (pH 4.5). After STZ injection for 3 weeks, blood was collected from the tail vein, and blood glucose ≥16.7 mmol/L was used as the criteria for the standard of the rats.
(§2) The route of administration is intragastric administration. TBN was administered twice a day (fixed at 9:00-10:00 am and 3:00-4:00 pm), and Losartan was administered once a day (fixed at 9:00-10:00 am) continuously for 6 weeks.
At the end of the experiment, kidney tissues were quickly separated, fixed with 4% paraformaldehyde and embedded in paraffin, serially sliced, 5 μm each, dried at 37° C. for 1 h, and then stained with hematoxylin and eosin (HE). The process is briefly as follows: paraffin sections were taken out of the 65° C. oven and immediately put in xylene to dewax and rehydrated with gradient alcohol, stained with hematoxylin staining solution for 10 minutes, and microscopically controlled alcohol differentiation with 1% hydrochloric acid was performed until the chromatin of the nucleus and the nucleus becomes clear; 1% ammonia water-ethanol solution is blue; 0.5% eosin Y-ethanol solution is stained for 3 min, and finally dehydrated routinely, mounted, and the tissue morphology changes are observed under a light microscope. […] The glomerular volume of rats in the DKD group of the Vehicle group increased, the mesangial area was diffusely widened, the mesangial cells were proliferated, the capillary loops were expanded, the mesangial matrix increased, and the glomerular capillary basement membrane was irregularly thickened. Renal pathological changes such as vacuole deformation, shedding of renal tubular epithelial cells and infiltration of a large number of inflammatory cells (FIG. 9A).

[2] = system: db/db mice; experiment: 24 h urine microalbumin in db/db mice; type: in vivo, mouse; conditions: TBN 10, 30, 60 mg/kg, end of 6 weeks; especially 30 and 60 mg/kg (P<0.001)
Description: db/db mice are congenital obese type 2 DKD mice with spontaneous mutations in the leptin receptor (Leptin receptor, Lepr) due to a point mutation in the leptin receptor gene GT located on chromosome 4. The course of polyphagia, polyuria, diabetes and hyperglycemia is similar to that of humans, and it is currently the most widely used type 2 spontaneous animal model of DKD. The db/db mice have a series of complications with the aggravation of diabetes. The main pathological changes of renal tissue are the expansion of the glomerular mesangial interstitium, the thickening of the glomerular basement membrane, and the excessive accumulation of extracellular matrix. However, the glomerular mesangium of db/db mice changes relatively slowly, and the glomerular mesangium will not be dissolved or nodular glomerulosclerosis, and there is no progressive renal insufficiency. […]
db/db mice were tested for 24 h urine microalbumin in the 4th and 6th week after drug treatment. […] The absorbance value (OD value) was measured at 450 nm wavelength; the blank control hole was used for adjusting zero, the microalbuminuria standard concentration was used as the abscissa, the OD value as the ordinate, the standard curve regression equation was calculated, and on the basis of the regression equation and the sample's OD value, the concentration of the sample was determined.

[3] = system: STZ-induced DKD rats; experiment: PAS staining, glomerular sclerosis index, STZ-induced DKD rats; type: in vivo, rat; conditions: all doses of TBN (10, 30, 60 mg/kg twice/day); Losartan 10 mg/kg once/day; 6 weeks; P<0.001 vs Vehicle
Description: as §1, §2
At the end of the experiment, kidney tissues were quickly separated, fixed with 4% paraformaldehyde and embedded in paraffin, serially sliced, 5 μm each, dried at 37° C. for 1 h, and then stained with PAS. The process is briefly as follows: paraffin sections are taken out of the 65° C. oven and immediately placed in xylene for deparaffinization and gradient alcohol rehydration, followed by periodic acid treatment for 5 min and Schiff treatment for 10 min, and then differentiation is performed with differentiation solution for 10 s. […]

[4] = system: STZ-induced DKD rats; experiment: Kidney index of STZ-induced DKD rats; type: in vivo, rat; conditions: after 6 weeks of administration
Description: SD rats (200±10 g) were used as model animals, which were fasted for 12 h before injection. STZ was dissolved in citrate buffer at 1% concentration, and rats were fasted and intraperitoneally injected with 55 mg/kg STZ and placed in the cage, the rats being ensured with adequate water intake for 24 h. STZ injections need to be fast and complete within 10 minutes of injection. The normal control group was injected with an equal volume of pH 4.5 citric acid-sodium citrate buffer. The state of the animals (multiple drinking and polyuria) was observed. After 3 weeks of STZ injection, blood was collected from the tail vein, and fasting blood glucose ≥16.7 mmol/L was measured as the standard for diabetic nephropathy in rats.
DKD rats were randomly assigned to 6 groups and given with different drugs. After 6 weeks of administration, the experiment was terminated and the protective effect of the drug on DKD rats was observed.
After 6 weeks of administration, the kidney tissue was uniformly separated by an autoclave surgical instrument, and washed with normal saline. After the filter paper was blotted, the fine balance was weighed, and then stored in a refrigerator at −80° C. for use. Kidney index (relative to kidney weight) is kidney weight (mg)/body weight (g)[…].

## Cc1nc(C)c(/C=[N+](\[O-])C(C)(C)C)nc1C [TBN]
[1]; 60 mg/kg i.g. twice/day, 6 weeks
  renal pathological changes (HE): improved the most
[1]; each dose group of TBN (10, 30, 60 mg/kg i.g. twice/day, 6 weeks)
  renal pathological changes (HE): improved
[2]
  24 h urine microalbumin production: dose-dependently reduced
[3]
  glomerular sclerosis index: significantly reduce
[4]
  kidney index: significantly reduced
